IC50 data for 37 compounds are collected here from US12485169B2, “Compounds” (GREY WOLF THERAPEUTICS LIMITED, priority 2018, dated 2025).

What is called IC50 is the concentration that gives 50% inhibition.

The structures appear in SMILES notation.

T1 sequence (Q9NZ08 37-941): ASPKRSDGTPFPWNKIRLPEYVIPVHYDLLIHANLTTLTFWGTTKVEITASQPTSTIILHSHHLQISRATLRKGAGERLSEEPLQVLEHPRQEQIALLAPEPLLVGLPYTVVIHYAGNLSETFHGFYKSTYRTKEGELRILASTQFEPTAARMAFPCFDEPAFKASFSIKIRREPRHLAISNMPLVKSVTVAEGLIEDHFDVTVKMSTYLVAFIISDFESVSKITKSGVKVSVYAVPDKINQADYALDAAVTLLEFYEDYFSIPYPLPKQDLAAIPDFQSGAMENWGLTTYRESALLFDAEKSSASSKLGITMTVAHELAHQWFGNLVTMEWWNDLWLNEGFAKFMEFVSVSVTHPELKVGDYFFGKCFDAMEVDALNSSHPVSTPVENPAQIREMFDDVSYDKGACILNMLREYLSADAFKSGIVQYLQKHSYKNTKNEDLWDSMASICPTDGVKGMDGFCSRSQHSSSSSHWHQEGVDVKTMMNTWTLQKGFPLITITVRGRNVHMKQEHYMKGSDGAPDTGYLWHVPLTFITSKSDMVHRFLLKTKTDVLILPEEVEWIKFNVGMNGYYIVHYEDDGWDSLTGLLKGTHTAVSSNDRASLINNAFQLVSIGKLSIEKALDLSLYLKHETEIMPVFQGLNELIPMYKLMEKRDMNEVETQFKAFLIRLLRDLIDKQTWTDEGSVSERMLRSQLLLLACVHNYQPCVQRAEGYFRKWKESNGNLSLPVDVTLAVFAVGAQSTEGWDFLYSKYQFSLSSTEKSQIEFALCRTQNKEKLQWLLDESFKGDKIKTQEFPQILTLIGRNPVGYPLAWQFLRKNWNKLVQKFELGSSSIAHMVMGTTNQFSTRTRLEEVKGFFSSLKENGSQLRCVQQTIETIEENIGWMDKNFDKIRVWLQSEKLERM

The test addresses T1, Purified ERAP1 (37-941)-10His (ERAP1) (Homo sapiens, UniProt Q9NZ08).
T1 construct: Purified ERAP1 (37-941)-10His (ERAP1)
The test is described as follows: ERAP1 mediated hydrolysis of an amide substrate (10-mer inhibition assay), biochemical system. The settings on record: 10-mer substrate, 23° C., 1 h, excitation 279 nm / emission 355 nm; read-out: IC50 vs Decapeptide WRVYEKC(Dnp)ALK-acid (where Dnp is Dinitrophenyl maleimide) (10-mer).
For `CCc1ccc(C(=O)O)cc1S(=O)(=O)Nc1cc(-c2cncs2)ccc1N1CCCCC1` [Example 275, 4-ethyl-3-(N-(2-(piperidin-1-yl)-5-(thiazol-5-yl)phenyl)sulfamoyl)benzoic acid], the IC50 was less than 500 nM.

Regarding `CCc1ccc(C(=O)O)cc1S(=O)(=O)Nc1cc(-c2cc[nH]n2)ccc1N1CCCCC1` [Example 276, 4-ethyl-3-(N-(2-(piperidin-1-yl)-5-(pyrazol-3-yl)phenyl)sulfamoyl)benzoic acid], the IC50 is less than 500 nM.

On to `CCc1ccc(C(=O)O)cc1S(=O)(=O)Nc1cc(-c2cnn(C)c2)ccc1N1CCCCC1` [Example 277, 4-ethyl-3-(N-(5-(1-methylpyrazol-4-yl)-2-(piperidin-1-yl)phenyl)sulfamoyl)benzoic acid], for which the IC50 was less than 500 nM.

Consider `CCc1ccc(C(=O)O)cc1S(=O)(=O)Nc1cc(-c2nncs2)ccc1N1CCCCC1` [Example 278, 4-ethyl-3-(N-(2-(piperidin-1-yl)-5-(1,3,4-thiadiazol-2-yl)phenyl)sulfamoyl)benzoic acid], for which the IC50 is less than 500 nM.

For the compound `CCc1ccc(C(=O)O)cc1S(=O)(=O)Nc1cc(-c2cnoc2C)ccc1N1CCCCC1` [Example 279, 4-ethyl-3-(N-(5-(5-methylisoxazol-4-yl)-2-(piperidin-1-yl)phenyl)sulfamoyl)benzoic acid], the IC50 is less than 500 nM.

As to `CCc1ccc(C(=O)O)cc1S(=O)(=O)Nc1cc(-c2ccn(C)n2)ccc1N1CCCCC1` [Example 280, 4-ethyl-3-(N-(5-(1-methylpyrazol-3-yl)-2-(piperidin-1-yl)phenyl)sulfamoyl)benzoic acid], the IC50 is less than 500 nM.

Regarding `CCc1ccc(C(=O)O)cc1S(=O)(=O)Nc1cc(-c2ccnn2C)ccc1N1CCCCC1` [Example 281], the IC50 was less than 500 nM.

Take `CCc1ccc(C(=O)O)cc1S(=O)(=O)Nc1cc(-c2cnc(C)s2)ccc1N1CCCCC1` [Example 282, 4-ethyl-3-(N-(5-(2-methylthiazol-5-yl)-2-(piperidin-1-yl)phenyl)sulfamoyl)benzoic acid]: the IC50 was less than 500 nM.

For the compound `CCc1ccc(C(=O)O)cc1S(=O)(=O)Nc1cc(-n2cnnn2)ccc1N1CC(O)C1` [Example 283, 4-ethyl-3-(N-(2-(3-hydroxyazetidin-1-yl)-5-(tetrazol-1-yl)phenyl)sulfamoyl)benzoic acid], the IC50 was less than 500 nM.

`CCc1ccc(C(=O)O)cc1S(=O)(=O)Nc1cc(-c2ccns2)ccc1N1CCCCC1` [Example 286, 4-ethyl-3-(N-(5-(isothiazol-5-yl)-2-(piperidin-1-yl)phenyl)sulfamoyl)benzoic acid]: the IC50 is less than 500 nM.

Consider `CCc1ccc(C(=O)O)cc1S(=O)(=O)Nc1cc(-c2cncn2C)ccc1N1CCCCC1` [Example 287, 4-ethyl-3-(N-(5-(1-methylimidazol-5-yl)-2-(piperidin-1-yl)phenyl)sulfamoyl)benzoic acid], for which the IC50 is less than 500 nM.

Take `CCc1ccc(C(=O)O)cc1S(=O)(=O)Nc1cc(-c2ncnn2C)ccc1N1CCCCC1` [Example 288, 4-ethyl-3-(N-(5-(1-methyl-1,2,4-triazol-5-yl)-2-(piperidin-1-yl)phenyl)sulfamoyl)benzoic acid]: the IC50 was less than 500 nM.

`CCc1ccc(C(=O)O)cc1S(=O)(=O)Nc1cc(-c2ncco2)ccc1N1CCCCC1` [Example 289, 4-ethyl-3-(N-(5-(oxazol-2-yl)-2-(piperidin-1-yl)phenyl)sulfamoyl)benzoic acid]: the IC50 was less than 500 nM.

`CCc1ccc(C(=O)O)cc1S(=O)(=O)Nc1cc(-c2cnccn2)ccc1N1CCCCC1` [Example 290, 4-ethyl-3-(N-(2-(piperidin-1-yl)-5-(pyrazin-2-yl)phenyl)sulfamoyl)benzoic acid]: the IC50 is less than 500 nM.

`CCc1ccc(C(=O)O)cc1S(=O)(=O)Nc1cc(-c2c(C)noc2C)ccc1N1CCCCC1` [Example 291, 3-(N-(5-(3,5-dimethylisoxazol-4-yl)-2-(piperidin-1-yl)phenyl)sulfamoyl)-4-ethylbenzoic acid]: the IC50 is less than 500 nM.

Regarding `CCc1ccc(C(=O)O)cc1S(=O)(=O)Nc1cc(-c2nnc(C)o2)ccc1N1CCCCC1` [Example 292, 4-ethyl-3-(N-(5-(5-methyl-1,3,4-oxadiazol-2-yl)-2-(piperidin-1-yl)phenyl)sulfamoyl)benzoic acid], the IC50 is less than 500 nM.

With `CCc1ccc(C(=O)O)cc1S(=O)(=O)Nc1cc(-c2cccnn2)ccc1N1CCCCC1` [Example 293, 4-ethyl-3-(N-(2-(piperidin-1-yl)-5-(pyridazin-3-yl)phenyl)sulfamoyl)benzoic acid], the IC50 was less than 500 nM.

Consider `CCc1ccc(C(=O)O)cc1S(=O)(=O)Nc1cc(C(F)(F)F)c(Br)cc1N1CCCCC1` [Example 294, 3-(N-(4-bromo-2-(piperidin-1-yl)-5-(trifluoromethyl)phenyl)sulfamoyl)-4-ethylbenzoic acid], for which the IC50 is less than 500 nM.

Turning to `N#Cc1ccc(N2CCCCC2)c(NS(=O)(=O)c2cc(C(=O)O)ccc2C2CC2)c1` [Example 295, 3-(N-(5-cyano-2-(piperidin-1-yl)phenyl)sulfamoyl)-4-cyclopropylbenzoic acid], the IC50 was less than 500 nM.

As to `CS(=O)(=O)c1ccc(N2CCCCC2)c(NS(=O)(=O)c2cc(C(=O)O)ccc2C2CC2)c1` [Example 296, 4-cyclopropyl-3-(N-(5-(methylsulfonyl)-2-(piperidin-1-yl)phenyl)sulfamoyl)benzoic acid], the IC50 was less than 500 nM.

`CCc1ccc(C(=O)O)cc1S(=O)(=O)Nc1cc(-c2cnoc2)ccc1N1CCCCC1` [Example 297, 4-ethyl-3-(N-(5-(isoxazol-4-yl)-2-(piperidin-1-yl)phenyl)sulfamoyl)benzoic acid]: the IC50 was less than 500 nM.

As to `CCc1ccc(C(=O)O)cc1S(=O)(=O)Nc1cc(-c2c[nH]nn2)ccc1N1CCCCC1` [Example 298, 4-ethyl-3-(N-(2-(piperidin-1-yl)-5-(1,2,3-triazol-4-yl)phenyl)sulfamoyl)benzoic acid], the IC50 was less than 500 nM.

Turning to `CCc1ccc(C(=O)O)cc1S(=O)(=O)Nc1cc(-c2nnco2)ccc1N1CCCCC1` [Example 299], the IC50 is less than 500 nM.

For `CCc1ccc(C(=O)O)cc1S(=O)(=O)Nc1cc(-c2ccno2)ccc1N1CCCCC1` [Example 300, 4-ethyl-3-(N-(5-(isoxazol-5-yl)-2-(piperidin-1-yl)phenyl)sulfamoyl)benzoic acid], the 50% inhibitory concentration (IC50) was less than 500 nM.

For the compound `CCc1ccc(C(=O)O)cc1S(=O)(=O)Nc1cc(-c2cn[nH]c2)ccc1N1CCCCC1` [Example 301, 4-ethyl-3-(N-(2-(piperidin-1-yl)-5-(pyrazol-4-yl)phenyl)sulfamoyl)benzoic acid], the IC50 was less than 500 nM.

Turning to `CCc1ccc(C(=O)O)cc1S(=O)(=O)Nc1cc(-c2ccnnc2)ccc1N1CCCCC1` [Example 302, 4-ethyl-3-(N-(2-(piperidin-1-yl)-5-(pyridazin-4-yl)phenyl)sulfamoyl)benzoic acid], the IC50 is less than 500 nM.

On to `CCc1ccc(C(=O)O)cc1S(=O)(=O)Nc1cc(-c2cnoc2C)c(C)cc1N1CCCCC1` [Example 303, 4-ethyl-3-(N-(4-methyl-5-(5-methylisoxazol-4-yl)-2-(piperidin-1-yl)phenyl)sulfamoyl)benzoic acid], for which the IC50 was less than 500 nM.

As for `CCc1ccc(C(=O)O)cc1S(=O)(=O)Nc1cc(-c2cnoc2C)c(F)cc1N1CCCCC1` [Example 304, 4-ethyl-3-(N-(4-fluoro-5-(5-methylisoxazol-4-yl)-2-(piperidin-1-yl)phenyl)sulfamoyl)benzoic acid], the IC50 is less than 500 nM.

`CCc1ccc(C(=O)O)cc1S(=O)(=O)Nc1c(N2CCCCC2)ccc(-c2cnoc2C)c1F` [Example 305, 4-ethyl-3-(N-(2-fluoro-3-(5-methylisoxazol-4-yl)-6-(piperidin-1-yl)phenyl)sulfamoyl)benzoic acid]: the IC50 is less than 500 nM.

As to `CCc1ccc(C(=O)O)cc1S(=O)(=O)Nc1cc(-c2cnoc2C)c(Cl)cc1N1CCCCC1` [Example 306, 4-ethyl-3-(N-(4-Chloro-5-(5-methylisoxazol-4-yl)-2-(piperidin-1-yl)phenyl)sulfamoyl)benzoic acid], the IC50 is less than 500 nM.

With `CCc1ccc(C(=O)O)cc1S(=O)(=O)Nc1cc(S(C)(=O)=O)ccc1N1CCC(F)(F)CC1` [Example 308, 3-(N-(2-(4,4-difluoropiperidin-1-yl)-5-(methylsulfonyl)phenyl)sulfamoyl)-4-ethylbenzoic acid], the IC50 was less than 500 nM.

Turning to `CS(=O)(=O)c1ccc(N2CCC(F)(F)CC2)c(NS(=O)(=O)c2cc(C(=O)O)ccc2C2CC2)c1` [Example 309, 4-cyclopropyl-3-(N-(2-(4,4-difluoropiperidin-1-yl)-5-(methylsulfonyl)phenyl)sulfamoyl)benzoic acid], the IC50 was less than 500 nM.

In the case of `N#Cc1ccc(N2CCC(F)(F)CC2)c(NS(=O)(=O)c2cc(C(=O)O)ccc2C2CC2)c1` [Example 310, 3-(N-(5-cyano-2-(4,4-difluoropiperidin-1-yl)phenyl)sulfamoyl)-4-cyclopropylbenzoic acid], the IC50 was less than 500 nM.

As for `CCc1ccc(C(=O)O)cc1S(=O)(=O)Nc1cc(C#N)ccc1N1CCC[C@@H](F)C1` [Example 311, I-3-(N-(5-cyano-2-(3-fluoropiperidin-1-yl)phenyl)sulfamoyl)-4-ethylbenzoic], the IC50 is less than 500 nM.

`N#Cc1ccc(N2CCC[C@@H](F)C2)c(NS(=O)(=O)c2cc(C(=O)O)ccc2C2CC2)c1` [Example 312, I-3-(N-(5-cyano-2-(3-fluoropiperidin-1-yl)phenyl)sulfamoyl)-4-cyclopropylbenzoic acid]: the IC50 was less than 500 nM.

Turning to `CCc1ccc(C(=O)O)cc1S(=O)(=O)Nc1cc(S(C)(=O)=O)ccc1N1CCCC(F)(F)C1` [Example 313, 3-(N-(2-(3,3-difluoropiperidin-1-yl)-5-(methylsulfonyl)phenyl)sulfamoyl)-4-ethylbenzoic acid], the IC50 was less than 500 nM.

As for `O=C(O)c1ccc(C2CC2)c(S(=O)(=O)Nc2cc(C(F)(F)F)ccc2N2CCC[C@@H](O)C2)c1` [Example 314, I-4-cyclopropyl-3-(N-(2-(3-hydroxypiperidin-1-yl)-5-(trifluoromethyl)phenyl)sulfamoyl)benzoic acid], the IC50 is less than 500 nM.
